# Results reported in publication PMC6968775, “Assessment of contribution of BCRP to intestinal absorption of various drugs using portal‐systemic blood concentration difference model in mice” (Pharmacology Research & Perspectives, 2020).
# How the values were obtained:
# [1] = human; cited from earlier work
# [2] = Pharmacokinetics after iv and oral administration, P‐S difference method, Bcrp(−/−) mice; type: in vivo
# Description: (§1) Male Mdr1a/1b(−/−) and Bcrp(−/−) mice, and WT mice of the same genetic background (FVB) were obtained from Taconic Farms (Germantown, NY, USA). […] Food and water were available ad libitum. All experiments were carried out in accordance with the principles and procedures outlined in the National Institutes of Health Guide for the Care and Use of Laboratory.
# (§2) All the mice were fasted overnight with free access to tap water. In the intravenous administration studies, model compounds were administered via the tail vein at doses of 1 mg/kg (n = 3). Following administration, blood samples were collected from the abdominal vein of the anesthetized mice at 0.083, 0.17, 0.5, 1, 2, 4, and 8 hours. […] Following administration, blood samples were taken from the portal and abdominal veins of the anesthetized mice at 0.083, 0.17, 0.5, 1, 2, 4, and 8 hours. The plasma samples were separated by centrifugation at 14 000g for 10 minutes at 4°C and stored at −30°C until analysis.
# (§3) After organic layer was evaporated at 60°C, the resultant residues were dissolved in a mobile phase. For the determination of topotecan and sulfasalazine, plasma samples were mixed with acetonitrile, centrifuged at 750 g for 10 minutes at 4°C, and the supernatants were collected. After the evaporation of the supernatants, the residues were dissolved in a mobile phase, and acidified with phosphoric acid for topotecan. All drugs were analyzed by HPLC system (Shimadzu LC‐10AS pump, Shimadzu SIL‐10A autosampler) equipped with a reverse‐phase column (COSMOSIL 5C18‐AR‐II, 3.5‐μm […], 4.6 × 150 mm).
# (§4) Elimination rate constant (k e) was determined by the least squares regression analysis of plasma concentration vs time curve. Elimination half‐life (t 1/2) was calculated using Eq.1:(1) t1/2=ln2/ke
# (§5) Area under plasma concentration‐time curve (AUC) and area under the first moment curve (AUMC) from time 0 to infinity were calculated by trapezoidal rule.
# (§6) Absorption rate constant (k a) after oral administration was calculated by the nonlinear least squares fitting with program MULTI.12
# (§7) BA was calculated by Eq.5:(7) BA=AUCoral/AUCiv×Doseiv/Doseoral×100 where AUCoral is AUC after oral administration. Doseiv and Doseoral are administered dose in the intravenous and oral administration study, respectively.
# (§8) Hepatic availability (F h) was calculated by Eq.6:(8) Fh=F/Fa×Fg
# P‐gp [3] = conditions: Caco‐2 permeability study; unpublished data; ref Fujita et al, manuscript in preparation; cited from earlier work
# [4] = Blood/plasma concentration ratio (R b) in fresh whole blood; type: in vitro ADME, FVB mice; conditions: fresh whole blood, FVB mouse whole blood, 37°C
# Description: Similarly, the model compounds were added to plasma, and reference blood samples were obtained according to the same procedure. These concentrations of drugs in each sample were analyzed using HPLC (C B and C P, respectively). R b value was calculated by dividing C B by C P.
# P‐gp [5] = conditions: in vivo (mice); calculated from F a F g in WT, Bcrp(−/−) and Mdr1a/1b(−/−) mice (Eq. 12)
# [6] = Pharmacokinetics after iv and oral administration, P‐S difference method, wild‐type mice; type: in vivo
# Description: as §1, §2, §3, §4, §5, §6, §7, §8
# [7] = Pharmacokinetics after iv and oral administration, P‐S difference method, Mdr1a/1b(−/−) mice; type: in vivo
# Description: as §1, §2, §3, §4, §5, §6, §7, §8
# [8] = Bcrp(−/−) mice, p.o. (ciprofloxacin 1, nitrofurantoin 2, topotecan 1, sulfasalazine 5 mg/kg)
# [9] = Bcrp(−/−) mice, p.o. (ciprofloxacin 1, nitrofurantoin 2, topotecan 1, sulfasalazine 5 mg/kg), systemic (sys) plasma
# [10] = wild‐type mice, p.o. (ciprofloxacin 1, nitrofurantoin 2, topotecan 1, sulfasalazine 5 mg/kg)
# [11] = wild‐type mice, p.o. (ciprofloxacin 1, nitrofurantoin 2, topotecan 1, sulfasalazine 5 mg/kg), systemic (sys) plasma
# [12] = Mdr1a/1b(−/−) mice, p.o. (ciprofloxacin 1, nitrofurantoin 2, topotecan 1, sulfasalazine 5 mg/kg)
# [13] = male, Mdr1a/1b(−/−) (FVB background), mouse, systemic plasma (abdominal vein), po
smiles,measurement,setting,value
"O=C(O)c1cc(/N=N/c2ccc(S(=O)(=O)Nc3ccccn3)cc2)ccc1O [sulfasalazine, Sulfasalazine]","AUC after oral administration, patients heterozygous variant for the BCRP SNP vs normal BCRP",[1],approximately 2 fold
same,human BA,[1],< 15%
same,human F a F g,[1],12%
same,F h,[2]; [8],73.2%
same,k a,[2]; [8],0.49 h⁻¹
same,BA,"[2]; Bcrp(−/−) mice, p.o. (ciprofloxacin 1, nitrofurantoin 2, topotecan 1, sulfasalazine 5 mg/kg) vs iv 1 mg/kg",95.2%
same,AUC 0→∞ (AUCpv),"[2]; Bcrp(−/−) mice, p.o. (ciprofloxacin 1, nitrofurantoin 2, topotecan 1, sulfasalazine 5 mg/kg), portal vein (pv) plasma",290 000 nmol/L·h
same,AUC 0→∞ (AUCsys),[2]; [9],288 000 nmol/L·h
same,t 1/2,[2]; [9],7.07 h
same,"k a, bcrp","[2]; Table 5 summary, Bcrp(−/−) mice, oral administration",0.49
same,(F a F g)bcrp,"[2]; as fraction, Bcrp(−/−) mice, oral administration",1.30
same,half-life,"[2]; male, Bcrp(−/−) (FVB background), mouse, plasma, iv, 1 mg/kg, Bcrp(−/−) mice, iv 1 mg/kg",3.57 h
same,Tmax,"[2]; male, Bcrp(−/−) (FVB background), mouse, portal vein plasma, po",2 h
same,Tmax,"[2]; male, Bcrp(−/−) (FVB background), mouse, systemic plasma (abdominal vein), po",2 h
same,AUC(0-inf),"[2]; male, FVB Bcrp(−/−), mouse, plasma (systemic, abdominal vein), iv, 1 mg/kg, Bcrp(−/−) mice, iv 1 mg/kg, read-out: AUC 0→∞",60.5 µM·h
same,C0,"[2]; male, FVB Bcrp(−/−), mouse, plasma (systemic, abdominal vein), Bcrp(−/−) mice, intravenous injection 1 mg/kg, read-out: extrapolated plasma concentration at zero time (C 0)",18.1 µM
same,clearance,"[2]; male, FVB Bcrp(−/−), mouse, plasma (systemic, abdominal vein), Bcrp(−/−) mice, iv 1 mg/kg, read-out: CL tot (converted)",0.667 mL/min/kg
same,Vd,"[2]; male, FVB Bcrp(−/−), mouse, plasma (systemic, abdominal vein), Bcrp(−/−) mice, iv 1 mg/kg, read-out: Vdss",0.19 L/kg
same,AUC(0-inf),"[2]; male, FVB Bcrp(−/−), mouse, portal vein plasma, po, Bcrp(−/−) mice, p.o. (ciprofloxacin 1, nitrofurantoin 2, topotecan 1, sulfasalazine 5 mg/kg), portal vein (pv) plasma, read-out: AUC 0→∞ (AUCpv)",290 µM·h
same,half-life,"[2]; male, FVB Bcrp(−/−), mouse, systemic plasma (abdominal vein), po, Bcrp(−/−) mice, p.o. (ciprofloxacin 1, nitrofurantoin 2, topotecan 1, sulfasalazine 5 mg/kg), systemic (sys) plasma",7 h
same,AUC(0-inf),"[2]; male, FVB Bcrp(−/−), mouse, systemic plasma (abdominal vein), po, Bcrp(−/−) mice, p.o. (ciprofloxacin 1, nitrofurantoin 2, topotecan 1, sulfasalazine 5 mg/kg), systemic (sys) plasma, read-out: AUC 0→∞ (AUCsys)",288 µM·h
same,"AUC pv and AUC sys after oral administration, Bcrp(−/−) mice vs WT mice",[2]; oral administration,more than 130 fold
same,AQp‐gp in vitro (Caco‐2),P‐gp [3],0.05
same,"blood plasma ratio at 15 min, 1 µg/mL",[4],1.28 ± 0.03
same,R P‐gp (rate of P‐gp contribution),P‐gp [5],0.09
same,"k a, wt","[6]; Table 5 summary, WT mice, oral administration",1.40
same,C0,"[6]; male, FVB (wild-type), mouse, plasma (systemic, abdominal vein), WT mice, intravenous injection 1 mg/kg, read-out: extrapolated plasma concentration at zero time (C 0)",11.7 µM
same,clearance,"[6]; male, FVB (wild-type), mouse, plasma (systemic, abdominal vein), wild‐type mice, iv 1 mg/kg, read-out: CL tot (converted)",11 mL/min/kg
same,Vd,"[6]; male, FVB (wild-type), mouse, plasma (systemic, abdominal vein), wild‐type mice, iv 1 mg/kg, read-out: Vdss",0.59 L/kg
same,half-life,"[6]; male, FVB (wild-type), mouse, plasma, iv, 1 mg/kg, wild‐type mice, iv 1 mg/kg",1.95 h
same,AUC(0-inf),"[6]; male, FVB (wild-type), mouse, plasma, iv, 1 mg/kg, wild‐type mice, iv 1 mg/kg, read-out: AUC 0→∞",3.82 µM·h
same,Tmax,"[6]; male, FVB (wild-type), mouse, portal vein plasma, po",0.17 h
same,AUC(0-inf),"[6]; male, FVB (wild-type), mouse, portal vein plasma, po, wild‐type mice, p.o. (ciprofloxacin 1, nitrofurantoin 2, topotecan 1, sulfasalazine 5 mg/kg), portal vein (pv) plasma, read-out: AUC 0→∞ (AUCpv)",2.2 µM·h
same,Tmax,"[6]; male, FVB (wild-type), mouse, systemic plasma (abdominal vein), po",0.5 h
same,half-life,"[6]; male, FVB (wild-type), mouse, systemic plasma (abdominal vein), po, wild‐type mice, p.o. (ciprofloxacin 1, nitrofurantoin 2, topotecan 1, sulfasalazine 5 mg/kg), systemic (sys) plasma",1 h
same,AUC(0-inf),"[6]; male, FVB (wild-type), mouse, systemic plasma (abdominal vein), po, wild‐type mice, p.o. (ciprofloxacin 1, nitrofurantoin 2, topotecan 1, sulfasalazine 5 mg/kg), systemic (sys) plasma, read-out: AUC 0→∞ (AUCsys)",1.94 µM·h
same,F h,[6]; [10],60.1%
same,k a,[6]; [10],1.40 h⁻¹
same,BA,"[6]; wild‐type mice, p.o. (ciprofloxacin 1, nitrofurantoin 2, topotecan 1, sulfasalazine 5 mg/kg) vs iv 1 mg/kg",10.2%
same,F a F g,"[6]; wild‐type mice, p.o. (ciprofloxacin 1, nitrofurantoin 2, topotecan 1, sulfasalazine 5 mg/kg), P‐S difference method",16.9%
same,AUC 0→∞ (AUCpv),"[6]; wild‐type mice, p.o. (ciprofloxacin 1, nitrofurantoin 2, topotecan 1, sulfasalazine 5 mg/kg), portal vein (pv) plasma",2.2 µM·h
same,AUC 0→∞ (AUCsys),[6]; [11],1.94 µM·h
same,t 1/2,[6]; [11],1.11 h
same,F h,[7]; [12],55.6%
same,k a,[7]; [12],0.93 h⁻¹
same,BA,"[7]; Mdr1a/1b(−/−) mice, p.o. (ciprofloxacin 1, nitrofurantoin 2, topotecan 1, sulfasalazine 5 mg/kg) vs iv 1 mg/kg",11.5%
same,F a F g,"[7]; Mdr1a/1b(−/−) mice, p.o. (ciprofloxacin 1, nitrofurantoin 2, topotecan 1, sulfasalazine 5 mg/kg), P‐S difference method",30%
same,"k a, P‐gp","[7]; Table 5 summary, Mdr1a/1b(−/−) mice, oral administration",0.93
same,(F a F g)P‐gp,"[7]; as fraction, Mdr1a/1b(−/−) mice, oral administration",0.30
same,clearance,"[7]; male, FVB Mdr1a/1b(−/−), mouse, plasma (systemic, abdominal vein), Mdr1a/1b(−/−) mice, iv 1 mg/kg, read-out: CL tot (converted)",9.83 mL/min/kg
same,Vd,"[7]; male, FVB Mdr1a/1b(−/−), mouse, plasma (systemic, abdominal vein), Mdr1a/1b(−/−) mice, iv 1 mg/kg, read-out: Vdss",0.45 L/kg
same,half-life,"[7]; male, Mdr1a/1b(−/−) (FVB background), mouse, plasma, Mdr1a/1b(−/−) mice, iv 1 mg/kg",1.63 h
same,AUC(0-inf),"[7]; male, Mdr1a/1b(−/−) (FVB background), mouse, plasma, Mdr1a/1b(−/−) mice, iv 1 mg/kg, read-out: AUC 0→∞",4.28 µM·h
same,Tmax,"[7]; male, Mdr1a/1b(−/−) (FVB background), mouse, portal vein plasma, po",0.17 h
same,Tmax,[7]; [13],0.5 h
same,half-life,[7]; [13],1.11 h
